Source: patent US20070218004A1, “Method of Identifying Therapeutic Compounds Which Can Be Used for the Treatment and/or Prevention of Infections and Diseases Caused by Human Herpesviruses” (priority 2005, published 2007)
Where two headings read alike, the source gives them in different places.

Assays:
[1] = tested on: herpes simplex virus type 1 (HSV-1) of the KOS strain; type: in vivo, mice of the C57B1/6 lineage
Description: All the animals included in the experimental process were 14-week old female mice of the C57B1/6 lineage. Between two and three adult mice were used per analysis group and between 13 and 25 neonates, depending on the availability of animals. […] All the animals went through a quarantine period and were treated with strict precautions against contamination during inoculation and dissection. The animals were intraperitoneally infected with a dose 10^6 pfu of herpes simplex virus type 1 (HSV-1) of the KOS strain (provided by el Dr. L. Carrasco, Centro de Biología Molecular Severo Ochoa, Universidad Autónoma of Madrid). […] The first group of mice was not given any treatment. […] Therefore the antiviral concentration administered per dose and mouse was 0.25 mg (10 mg/kg per mouse, far from the toxicity limit of 80 mg/kg cited above), with a total daily dose of 0.75 mg/day.
The dissected organs in the adult animals were the following: blood, ovaries, adrenal gland, spinal cord, brain, cerebellum and trigeminal ganglia. The entire brain was separated into three rough regions: midbrain, ventricles and cerebral cortex. In the neonates, the dissected organs were blood, spinal cord and encephalon. DNA was extracted using conventional methods (NucleoSpin®, Cat. K3053-2, ClonTech, USA). The viral load of the different organs was analyzed by means of quantitative PCR. […] Primers specific for the sequence of the viral polymerase (pol) gene were used to detect the virus (SEQ. ID. NO: 3 and SEQ. ID. NO: 4) (120 bp amplicon). The PCR conditions were one cycle of 95° C. for 10 minutes, followed by 45 cycles at 95° C. for 30 seconds, 55° C. (for β-actin) or 60° C. (for viral polymerase) for 30 seconds, and a last cycle of 72° C. for 40 seconds. The virus concentration range used for optimizing the quantitative PCR standard curve was expressed as plaque forming units (pfu). For calibrating the β-actin gene, nanograms were used as the unit of this endogenous gene. The identity of the amplified products was checked by analysis of the denaturation curves, by gel electrophoresis and restriction analysis.

[2] = tested on: HSV-1; assay: Acyclovir ad libitum in drink, vertical mother-progeny transmission model (Example 3); type: in vivo, mice; settings: acyclovir in drinking water ad libitum, high dose (final daily dose 1.50 mg), from the day of the vaginal plug
Description: Assuming that a mouse drinks about 3 ml a day, 2 working dilutions ([…] so that the final daily dose was 0.75 mg, and […] so that the final daily dose was 1.50 mg) were used.

[3] = rabbits; cited from earlier work
[4] = rats; cited from earlier work
[5] = mice; cited from earlier work

Nc1nc2c(ncn2COCCO)c(=O)[nH]1 [acyclovir]
viral loads both in the mothers and in the progeny (quantitative PCR) ([1]; daily dose of 0.75 mg, both administration routes (oral and subcutaneous), FIG. 7): significant reduction
viral levels in all the analyzed organs of the descendants ([1]; oral acyclovir administered to the mothers, 0.75 mg/day): almost complete elimination
mortality of neonates ([1]; oral acyclovir to infected mothers, 0.25 mg per dose three times a day (0.75 mg/day), none of the 17 animals): no mortality
virus levels in blood and in the trigeminal ganglia of the mothers ([1]; oral acyclovir, 0.75 mg/day): virtually undetectable
mortality rate of neonates ([1]; subcutaneous acyclovir to infected mothers, 0.25 mg per dose three times a day (0.75 mg/day), from five days before crossbreeding until birth, 1 out of 25): 4.0%
levels of the virus in all the analyzed organs of the mother and in the progeny's CNS ([1]; subcutaneous acyclovir, 0.75 mg/day): considerably lower levels
survival of the animals [2]: higher
teratogenicity / embryotoxicity [3]: non-teratogenic or embryotoxic
teratogenicity / embryotoxicity [4]: non-teratogenic or embryotoxic
teratogenicity / embryotoxicity [5]: non-teratogenic or embryotoxic
